# Data from patent publication US20250026779A1 (priority 2023, published 2025).
# Experiments:
# Balb/c mice = test: In vivo expression of Lucia mRNAs containing cap analogs; conditions: Lucia mRNA capped with the compound, compared with Cap1 (FIG. 1C)
# Experimental: Candidate RNAs were formulated using proprietary lipid-based delivery vehicles (e.g., as described in WO 2020/069442 and WO 2023/014931) and administered to Balb/c mice at a dose of 15 μg per mouse. In life serum draws were conducted via submandibular vein at selected time points starting 2 hours post-dose. Serum was diluted 5 μL into […] of QUANTI-Luc reagent (InvivoGen, San Diego, CA, USA) and measured immediately using a plate reader (Molecular Devices, San Jose, CA, USA).
# [1] = molecular target: T1, HiScribe T7 RNA synthesis kit (IVT reaction, DNA template encoding Lucia) (Escherichia phage T7, UniProt P00573); test: In vitro transcription (IVT) of mRNAs containing cap analogs: yield / incorporation; type: biochemical
# T1 construct: purchased New England Biolabs
# T1 sequence (P00573 whole entry): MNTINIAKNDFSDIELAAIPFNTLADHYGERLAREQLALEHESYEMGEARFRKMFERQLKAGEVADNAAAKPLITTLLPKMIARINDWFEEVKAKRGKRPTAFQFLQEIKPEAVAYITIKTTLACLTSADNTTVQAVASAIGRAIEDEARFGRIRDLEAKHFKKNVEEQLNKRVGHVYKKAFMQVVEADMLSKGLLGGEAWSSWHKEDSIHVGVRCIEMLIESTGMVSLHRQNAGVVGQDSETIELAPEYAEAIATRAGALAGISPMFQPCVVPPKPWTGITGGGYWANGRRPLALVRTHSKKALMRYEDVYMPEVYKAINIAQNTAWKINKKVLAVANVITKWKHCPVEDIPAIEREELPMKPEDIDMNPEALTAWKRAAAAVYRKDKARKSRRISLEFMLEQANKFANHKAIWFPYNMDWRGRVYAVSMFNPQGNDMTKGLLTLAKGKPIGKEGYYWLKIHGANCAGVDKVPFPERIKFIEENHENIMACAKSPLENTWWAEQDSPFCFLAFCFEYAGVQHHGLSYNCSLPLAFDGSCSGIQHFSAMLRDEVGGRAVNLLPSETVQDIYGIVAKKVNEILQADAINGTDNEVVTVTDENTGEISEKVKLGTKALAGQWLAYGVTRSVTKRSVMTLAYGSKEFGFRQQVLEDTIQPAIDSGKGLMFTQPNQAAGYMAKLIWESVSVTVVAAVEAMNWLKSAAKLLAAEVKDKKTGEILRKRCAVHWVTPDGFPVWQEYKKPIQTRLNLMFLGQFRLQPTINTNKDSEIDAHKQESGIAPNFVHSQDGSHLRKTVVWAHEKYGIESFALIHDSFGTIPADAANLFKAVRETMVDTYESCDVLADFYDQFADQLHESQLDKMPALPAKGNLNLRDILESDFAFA
# Experimental: mRNA was transcribed from DNA template encoding Lucia using HiScribe T7 RNA synthesis kit (New England Biolabs, Ipswich, MA, USA). N^1-Methylpseudo-UTP (TniLink, San Diego, CA, USA) was used in replaced of UTP for the reaction. For 5′ capping of the mRNA, the cap analog compounds (e.g., Compounds 1-4) described herein, or CleanCap (TriLink, San Diego, CA, USA), were added to the IVT reaction, as indicated. The reactions were performed for 4 hours at 37° C.
# Purification of the transcript was performed by TURBO DNase digestion (ThermoFisher Scientific, Waltham, MA, USA) for 30 min at 37° C. followed by RNAClean XP beads (Beckman Coulter) clean up. The RNA bound beads were washed 3 times with freshly prepared 70% ethanol, air dried for 15 minutes followed by elution in 200 μL of nuclease free water. The purified mRNA was quantified using nanodrop (ThermoFisher Scientific, Waltham, MA, USA) and analyzed using Tapestation (Agilent, Santa Clara, CA, USA).
# [2] = tested on: human Dendritic Cells (differentiated from PBMCs); test: Cap immunogenicity by multiplexed cytokine screening (Luminex) in dendritic cells; type: cell-based; conditions: human DCs, 24 hours, compared with Cap1 (FIGS. 3A-3F)
# Experimental: Fresh human Dendritic Cells (differentiated from PBMCs by GM-CSF+IL-4 stimulation) were plated at 5e4 cells per well in 96 well flat TC treated dish. mRNA was prepared in Lipofectamine MessengerMAX transfection reagent according to manufacturer's instructions at 2ng/1 k cells. Briefly, mRNA was diluted to 0.02 μg/μl in Opti-MEM reduced serum medium and mixed 1:1 with MessengerMAX to a concentration of 0.01 μg/μl. Two 1:10 dilutions were performed and 10 or 2.5 μl per well of each dilution was added directly to DCs in resulting doses of 2, 0.5, 0.2, 0.05 and 0.02 ng per 1000 DCs. Immunostimulatory RIG-1 agonist Hairpin RNA (3p-hpRNA, InvivoGen) and double stranded RNA (5′ ppp-dsRNA, InvivoGen) were used as controls and formulated as described above.
# Stimulated DCs were incubated for 24 hours at 37° C. with 5% CO2. Supernatant was collected and immediately frozen at −80° C. It was subsequently thawed and prepared for Luminex xMAP analysis using a Human Inflammation 20-Plex ProcartaPlex Panel kit (ThermoFisher) according to the manufacturer's instructions. Data was acquired on a MAGPIX system (Luminex xMAP instrument) and pg/mL values for each analyte were derived from a standard curve generated with kit components. Values outside the range of the standard curve were reported as mean fluorescence intensity (MFI).
Compound,in vivo expression (Balb/c mice),"IVT yield ([1]; mRNA capped with the compound, compared with Cap1 (FIG. 1A))",incorporation into IVT ([1]; trinucleotide cap modified at the 7G position),"immunogenicity across key cytokine markers (IFNγ, IFNα, IP-10, IL-1α, TNFα) [2]"
CC[n+]1cn([C@@H]2O[C@H](COP(=O)(O)OP(=O)([O-])OP(=O)(O)OC[C@H]3O[C@@H](n4cnc5c(N)ncnc54)[C@H](OC)[C@@H]3OP(=O)(O)OC[C@H]3O[C@@H](n4cnc5c(=O)[nH]c(N)nc54)[C@H](O)[C@@H]3O)[C@@H](O)[C@H]2O)c2nc(N)[nH]c(=O)c21 [Compound 1],equivalently,equivalently,successfully incorporated,–
CC[n+]1cn([C@@H]2O[C@H](COP(=O)(O)OP(=O)(O)OP(=O)(O)OC[C@H]3O[C@@H](n4cnc5c(N)ncnc54)[C@H](OC)[C@@H]3O[P@@]([O-])(=S)OC[C@H]3O[C@@H](N4C=NC5C(=O)NC(N)=NC54)[C@H](O)[C@@H]3O)[C@@H](O)[C@H]2O)c2nc(N)[nH]c(=O)c21 (stereo partly shown) [Compound 3],–,–,–,lower
